# Data taken from ChEMBL document CHEMBL1133304, “Design and synthesis of potent thiol-based inhibitors of endothelin converting enzyme-1” (Bioorg Med Chem Lett, 2000).
# Key:
# [1] = system: Rattus norvegicus; experiment: Intravenously injected compound (0.3 nmol/kg) was tested in rat for the inhibitory activity against endothelin-1 (ET-1) pressor response after 24 hour; type: functional
# [2] = system: Rattus norvegicus; experiment: Intravenously injected compound (0.3 nmol/kg) was tested in rat for the inhibitory activity against endothelin-1 (ET-1) pressor response after 8 hour; type: functional
# [3] = target: T1, Endothelin-converting enzyme 1 (Homo sapiens, UniProt P42892); experiment: In vitro inhibition of human Endothelin converting Enzyme-1 activity
# T1 sequence (P42892 whole entry): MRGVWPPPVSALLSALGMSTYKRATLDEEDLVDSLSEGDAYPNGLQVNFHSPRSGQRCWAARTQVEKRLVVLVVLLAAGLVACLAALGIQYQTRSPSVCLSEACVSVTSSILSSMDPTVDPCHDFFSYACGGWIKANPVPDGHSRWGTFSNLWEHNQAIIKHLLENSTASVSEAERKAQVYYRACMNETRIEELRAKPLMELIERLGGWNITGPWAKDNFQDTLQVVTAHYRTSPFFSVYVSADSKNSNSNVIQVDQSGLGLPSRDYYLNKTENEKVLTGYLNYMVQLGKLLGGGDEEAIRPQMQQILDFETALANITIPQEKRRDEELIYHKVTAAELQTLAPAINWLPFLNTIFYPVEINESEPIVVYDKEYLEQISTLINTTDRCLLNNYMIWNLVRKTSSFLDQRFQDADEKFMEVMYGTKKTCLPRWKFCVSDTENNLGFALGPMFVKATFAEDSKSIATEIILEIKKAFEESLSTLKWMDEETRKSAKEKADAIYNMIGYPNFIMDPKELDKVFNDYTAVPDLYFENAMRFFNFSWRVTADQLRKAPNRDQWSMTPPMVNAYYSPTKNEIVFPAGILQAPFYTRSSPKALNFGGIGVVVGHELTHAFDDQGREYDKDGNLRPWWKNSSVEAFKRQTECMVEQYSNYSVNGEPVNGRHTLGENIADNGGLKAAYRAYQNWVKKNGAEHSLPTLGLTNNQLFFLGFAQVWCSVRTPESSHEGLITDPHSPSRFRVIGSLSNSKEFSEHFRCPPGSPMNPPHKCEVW
SMILES,Inhibition [1] [%],Inhibition [2] [%],IC50 [3] [nM]
CCC[C@H](SC(C)=O)C(=O)NC1(C(=O)N[C@@H](Cc2ccc(-c3ccccc3)cc2)C(=O)OC)CCCC1,30,75,
CC(C)[C@H](S)C(=O)NC1(C(=O)N[C@@H](Cc2ccc(-c3ccccc3)cc2)C(=O)O)CCCC1,,,77
